Data on two compounds can be found in PMC9303812, “Asymmetrically Substituted m‐Terphenyl Phosphates Inhibit the Transcription Factor STAT5a” (Chembiochem, 2021).

SMILES strings stand for the structures. Like-named read-outs stand apart in the source and are kept apart here.

Test [1] deals with STAT3 (Homo sapiens, UniProt P40763). Briefly: Fluorescence polarization (FP) binding assay, STAT3. On the procedure:
Table S1: Activities of test compounds against STAT5a and STAT5b in FP assays . Experiments were carried out in triplicate (n = 3) unless stated otherwise. n/a: not applicable.
[a]data taken from the literature.[1]
(§1) Ki values were calculated from IC50 values using the published equation.[2] […]
(§2) Table S2: Activities of 12 against STAT5 proteins in FP assays.
(§3) Fluorescence polarization assays
(§4) Fluorescence polarization assays were essentially carried out as previously described.[1] These assays quantitate to which extent a test compound is able to interfere with binding between a STAT protein and a fluorescein-labeled phosphotyrosine-containing peptide, which is known to bind to the SH2 domain of the respective STAT protein. The following protein […]
(§5) concentrations were used: 100 nM for STAT1, 150 nM for STAT3, 30 nM for STAT4, 180 nM for STAT5a, 90 nM for STAT5b and 105 nM for STAT6. All peptides were used at a concentration of 10 nM. The following peptides were used: 5 -carboxyfluorescein -GpYDKPHVL for STAT1; 5-carboxyfluorescein -GpYLPQTV-NH2 for STAT3; 5-carboxyfluorescein-GpYLPQNID-OH for STAT4; 5-carboxyfluorescein-GpYLVLDKW for STAT5a/b, and 5-carboxyfluorescein-GpYVPWQDLI-OH for STAT6. As a buffer system, 10 mM Tris (pH 8.0), 50 mM NaCl, 1 mM EDTA, 1 mM DTT, 0.1 % Nonidet P-40 substitute, and 2 % DMSO in water was used. All compounds tested were incubated for 1 h with the protein. Subsequently, the fluorescein-labeled peptide was added and the fluorescence polarization was measured with an Infinite F500 plate reader (Tecan) after another hour. IC50 values were converted to Ki-values using the published equation.[2]

Test [2] concerns the target T1, STAT4 (Homo sapiens, UniProt Q14765).
T1 sequence (Q14765 1-748): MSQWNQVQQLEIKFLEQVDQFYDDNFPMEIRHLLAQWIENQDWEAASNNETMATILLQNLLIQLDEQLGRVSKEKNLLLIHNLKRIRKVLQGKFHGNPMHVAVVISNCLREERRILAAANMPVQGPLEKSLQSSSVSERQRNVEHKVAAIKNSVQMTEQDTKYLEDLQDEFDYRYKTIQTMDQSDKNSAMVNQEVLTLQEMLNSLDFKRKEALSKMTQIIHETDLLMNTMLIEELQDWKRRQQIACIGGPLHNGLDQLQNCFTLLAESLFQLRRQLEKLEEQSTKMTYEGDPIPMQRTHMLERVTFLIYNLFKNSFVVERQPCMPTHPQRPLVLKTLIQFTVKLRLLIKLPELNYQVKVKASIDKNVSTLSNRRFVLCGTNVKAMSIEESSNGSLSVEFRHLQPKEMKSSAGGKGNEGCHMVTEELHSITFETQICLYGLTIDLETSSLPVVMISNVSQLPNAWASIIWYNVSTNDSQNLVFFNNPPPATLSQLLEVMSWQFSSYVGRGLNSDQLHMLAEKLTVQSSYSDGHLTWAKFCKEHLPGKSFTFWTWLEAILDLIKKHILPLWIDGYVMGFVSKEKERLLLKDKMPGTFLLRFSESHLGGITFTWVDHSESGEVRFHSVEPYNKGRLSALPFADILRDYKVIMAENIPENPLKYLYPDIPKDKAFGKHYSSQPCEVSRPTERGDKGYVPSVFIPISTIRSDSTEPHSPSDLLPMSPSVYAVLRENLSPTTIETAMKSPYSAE
Briefly: Fluorescence polarization (FP) binding assay, STAT4. On the procedure: as §1, §2, §3, §4
as §5, with “equation.[2] […]” for “equation.[2]”
3:2 solution was added . The solution was degassed by applying ultrasonic under vacuum for one minute four times. 14 mg of Pd(PPh3)4 (12 µmol, 5 mol %) were added and the solution was refluxed overnight. After cooling down, the mixture was extracted with ethyl acetate, washed with brine and dried over Na2SO4. The crude product was purified by flash column […]
Method 2: Synthesis of dibenzylphosphate esters
The corresponding phenol (1 eq.) was dissolved in 10 ml/mmol MeCN or DMF and CCl4 (5 eq.), DIPEA (2 eq.) and DMAP (0.1 eq.) were added. After cooling down to 0°C, dibenzyl phosphite (1.5 eq.) was added dropwise and stirring was continued at the same temperature. […]

STAT3, sequence (P40763 whole entry, species assumed): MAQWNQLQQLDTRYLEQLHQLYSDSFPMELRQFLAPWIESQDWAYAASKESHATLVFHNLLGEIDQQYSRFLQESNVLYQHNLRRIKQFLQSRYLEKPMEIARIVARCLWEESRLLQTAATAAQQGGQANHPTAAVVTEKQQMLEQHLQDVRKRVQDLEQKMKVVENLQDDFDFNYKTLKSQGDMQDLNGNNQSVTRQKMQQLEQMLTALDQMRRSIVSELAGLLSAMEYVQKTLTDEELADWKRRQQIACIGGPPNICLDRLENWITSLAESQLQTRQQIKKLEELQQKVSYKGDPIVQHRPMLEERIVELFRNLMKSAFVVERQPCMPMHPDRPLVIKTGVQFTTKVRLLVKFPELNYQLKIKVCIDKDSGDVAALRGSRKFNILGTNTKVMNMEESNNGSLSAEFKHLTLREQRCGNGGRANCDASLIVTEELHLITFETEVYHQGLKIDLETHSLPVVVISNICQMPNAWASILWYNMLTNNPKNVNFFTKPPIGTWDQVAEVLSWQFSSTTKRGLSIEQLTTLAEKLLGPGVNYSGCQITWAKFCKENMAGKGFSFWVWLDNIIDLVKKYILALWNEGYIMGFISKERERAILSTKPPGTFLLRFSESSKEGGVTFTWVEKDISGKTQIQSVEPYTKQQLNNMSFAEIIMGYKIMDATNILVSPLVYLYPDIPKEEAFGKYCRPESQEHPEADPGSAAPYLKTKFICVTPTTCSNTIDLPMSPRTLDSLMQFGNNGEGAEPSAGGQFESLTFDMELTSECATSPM

`COc1cc(-c2cc(OP(=O)(O)O)cc(-c3cc(F)c(F)c(F)c3)c2)cc(OC)c1OC` [6 b]: in test [1] (read-out: STAT3 inhibition at 200 μM), the inhibition at 200 µM was found to be 25 ± 3%. The same compound yielded a Ki in test [2] of 39.7 ± 3 µM.

`COc1cc(-c2cc(-c3cc(F)c(F)c(F)c3)cc(C(F)P(=O)(O)O)c2)cc(OC)c1OC` (stereo not drawn) [compound 12]: the IC50 was 145 ± 6.8 µM in test [1] (FP assay) and 99.3 ± 8 µM in test [2] (FP assay). For the same compound, the Ki was 71.7 ± 3.4 µM in test [1] (FP assay, Ki calculated from IC50 (n=3)) and 49.2 ± 4 µM in test [2] (FP assay, Ki calculated from IC50 (n=3), read-out: STAT4 Ki).
